Residue numbers refer to the chain shown, from its start. Entries after “also recorded” stand apart in the source; their conditions may differ. Where a SMILES comes first, the peptide text is derived from it. The star is where a group is joined. X1 = CN(C)c1ccc2c(-c3ccc(C(=O)*)cc3C(=O)[O-])c3ccc(=[N+](C)C)cc-3oc2c1
Assays:
NHERF1 PDZ2 N167H/D183E = molecular target: T1, NHERF1 PDZ2 N167H/D183E (Homo sapiens, UniProt O14745, D183E/N167H); test: FP saturation binding, PDZ2 N167H/D183E; conditions: Asn167His/Asp183Glu PDZ2
T1 construct: pET16-N1P2 encoding PDZ2 (133–300) of NHERF1; inferred from pET16 vector and Ni-NTA purification; made in house; host or cells: E. coli BL21 (DE3)
T1 sequence (O14745 133-300 N167H/D183E): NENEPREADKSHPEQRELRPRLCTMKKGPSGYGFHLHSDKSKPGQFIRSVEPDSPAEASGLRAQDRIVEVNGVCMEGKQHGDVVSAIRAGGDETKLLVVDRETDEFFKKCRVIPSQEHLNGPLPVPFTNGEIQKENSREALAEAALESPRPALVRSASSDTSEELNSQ

[1] = molecular target: T2, NHERF1 PDZ1 H27N/E43D (1–120) (Homo sapiens, UniProt O14745, E43D/H27N); test: ITC, PDZ1 H27N/E43D (1–120); type: binding
T2 construct: PDZ1 H27N/E43D (1–120)
T2 sequence (O14745 1-120 H27N/E43D): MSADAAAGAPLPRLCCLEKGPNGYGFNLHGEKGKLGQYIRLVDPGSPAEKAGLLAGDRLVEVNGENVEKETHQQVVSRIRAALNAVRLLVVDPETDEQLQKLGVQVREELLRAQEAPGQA
Procedure: (§1) ITC measurements were performed with a MicroCalTM Auto-iTC200 system (GE Healthcare) at 25°C. Before measurement, samples were dialyzed overnight at 4°C in a buffer containing 10 mM Hepes (pH 7.5), 10 mM NaCl, 0.5 mM EDTA, and 0.5 mM ββ-mercaptoethanol. For determining NPT2A binding to PDZ constructs, the reaction cells were filled with 460 μl of 25 μM of the indicated PDZ protein. The ligand NPT2A (200–250 μM), was titrated into the cell in 19 injections of 2 μl each, with 150 s intervals between each injection. To remove the contribution of NPT2A dilution heat, a control experiment has been performed by titrating NPT2A into the buffer, which was then subtracted from the actual experimental data.
(§2) The ITC data were analyzed using Microcal Origin 7.0 and the manufacturer's provided VPViewer module to yield the association constant (Ka), stoichiometry (n), and the observed enthalpy change (ΔH°) for the binding reactions. Analysis of ITC data directly yielded ΔH° and Ka. The Gibbs energy calculated using the equation: ΔG°=−RTlnKa (3)
(§3) The entropy change was then obtained using the standard thermodynamic expression.

NHERF1 PDZ1 E43D (1–120) = molecular target: T3, NHERF1 PDZ1 E43D (1–120) (Homo sapiens, UniProt O14745, E43D); test: ITC, PDZ1 E43D (1–120); type: binding
T3 construct: PDZ1 E43D (1–120)
T3 sequence (O14745 1-120 E43D): T2 sequence (O14745 1-120 H27N/E43D) with N27H
Procedure: as §1, §2, §3

NHERF1 PDZ2 D183E = molecular target: T4, NHERF1 PDZ2 D183E (Homo sapiens, UniProt O14745, D183E); test: FP saturation binding, PDZ2 D183E; conditions: Asp183Glu PDZ2
T4 construct: pET16-N1P2 encoding PDZ2 (133–300) of NHERF1; inferred from pET16 vector and Ni-NTA purification; made in house; host or cells: E. coli BL21 (DE3)
T4 sequence (O14745 133-300 D183E): T1 sequence (O14745 133-300 N167H/D183E) with H35N

NHERF1 PDZ1 (1–120) = molecular target: T5, NHERF1 PDZ1 (1–120) (Homo sapiens, UniProt O14745); test: ITC, PDZ1 (1–120); type: binding; conditions: 25°C
T5 construct: PDZ1 (1–120)
T5 sequence (O14745 1-120): T2 sequence (O14745 1-120 H27N/E43D) with N27H, D43E
Procedure: as §1, §2, §3

NHERF1 PDZ1 and PDZ2 = conditions: PDZ1 versus PDZ2; ref [10],[14]–[16]; cited from earlier work
From the text: Na^+/H^+ Exchanger Regulatory Factor-1 (NHERF1), also known as the 50-kDa ezrin-binding protein EBP50, is a multi-domain scaffolding protein that coordinates the assembly and trafficking of transmembrane receptors and ion channels. […] PDZ domains of NHERF1 recognize the X-S/T-X-ΦCOO ^- sequence of target partners (class I PDZ-binding motifs), where X is promiscuous and Φ is a hydrophobic residue. By conve ...

NHERF1 PDZ1 (1–140) = molecular target: T6, NHERF1 PDZ1 (1–140) (Homo sapiens, UniProt O14745); test: FP saturation binding, PDZ1 (1–140); conditions: acidic pH (5.5, 6.0) compared to pH 7.4
T6 construct: The expression plasmids pET16-N1P1 encoding PDZ1 (1–140); inferred from pET16 vector and Ni-NTA purification; made in house; host or cells: E. coli BL21 (DE3)
T6 sequence (O14745 1-140): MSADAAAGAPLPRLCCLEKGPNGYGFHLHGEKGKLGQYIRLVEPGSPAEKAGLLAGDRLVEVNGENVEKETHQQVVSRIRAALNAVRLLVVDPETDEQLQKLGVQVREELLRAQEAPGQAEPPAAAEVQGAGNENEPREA

NHERF1 PDZ1 H27N (1–120) = molecular target: T7, NHERF1 PDZ1 H27N (1–120) (Homo sapiens, UniProt O14745, H27N); test: ITC, PDZ1 H27N (1–120); type: binding
T7 construct: PDZ1 H27N (1–120)
T7 sequence (O14745 1-120 H27N): T2 sequence (O14745 1-120 H27N/E43D) with D43E
Procedure: as §1, §2, §3

SMILES: CC(C)C[C@H](NC(=O)[C@H](CCCNC(=N)N)NC(=O)[C@@H](NC(=O)[C@H](C)NC(=O)[C@H](CC(N)=O)NC(=O)[C@H](Cc1c[nH]cn1)NC(=O)[C@H](Cc1c[nH]cn1)NC(=O)[C@H](C)NC(=O)[C@@H]1CCCN1C(=O)[C@H](CC(C)C)NC(=O)[C@H](C)NC(=O)[C@H](CC(C)C)NC(=O)[C@H](CCCNC(=N)N)NC(=O)[C@@H]1CCCN1C(=O)[C@H](CO)NC(=O)[C@@H]1CCCN1C(=O)[C@@H](NC(=O)[C@H](C)NC(=O)[C@@H]1CCCN1C(=O)[C@@H]1CCCN1C(=O)[C@H](CC(C)C)NC(=O)[C@H](CCC(=O)O)NC(=O)c1ccc(-c2c3ccc(=[N+](C)C)cc-3oc3cc(N(C)C)ccc23)c(C(=O)[O-])c1)[C@@H](C)O)[C@@H](C)O)C(=O)O [NPT2A] (X1-ELPPATPSPRLALPAHHNATRL-OH)
- binding affinity (NHERF1 PDZ2 N167H/D183E): further enhancement of the binding affinity; also recorded: micromolar affinity
- N (stoichiometry) ([1]; 25°C, pH 7.5): 0.60
- ΔH^o ([1]; 25°C, pH 7.5): -5.8 ± 0.6 kcal/mol
- ΔG^o ([1]; 25°C, pH 7.5, from Eq 3): -6.5 ± 0.6 kcal/mol
- ΔS^o ([1]; 25°C, pH 7.5, from Eq 4): 2.3±0.3 cal/mol/K
- ∆∆G^o ([1]; His27 by Asn and Glu43 by Asp, versus WT): 1.1 kcal/mol
- effect of Glu43Asp mutation on interaction (NHERF1 PDZ1 E43D (1–120); FP and ITC): decrease the interaction with NPT2A
- ∆∆H^o (NHERF1 PDZ1 E43D (1–120); Glu43Asp PDZ1 minus WT, ITC): 5.2 kcal/mol
- ∆∆S^o (NHERF1 PDZ1 E43D (1–120); Glu43Asp PDZ1 minus WT, ITC): 14.8 cal mol^-1 K^-1
- N (stoichiometry) (NHERF1 PDZ1 E43D (1–120); ITC, 25°C, pH 7.5): 0.60
- ΔH^o (NHERF1 PDZ1 E43D (1–120); ITC, 25°C, pH 7.5): -3.0 ± 0.3 kcal/mol
- ΔG^o (NHERF1 PDZ1 E43D (1–120); ITC, 25°C, pH 7.5, from Eq 3): -6.8 ± 0.7 kcal/mol
- ΔS^o (NHERF1 PDZ1 E43D (1–120); ITC, 25°C, pH 7.5, from Eq 4): 12.7±1.0 cal/mol/K
- ∆∆G^o (NHERF1 PDZ1 E43D (1–120); ∆G^o E43D - ∆G^o WT, ITC): 0.8 kcal/mol
- binding affinity (NHERF1 PDZ2 D183E): micromolar affinity
- N (stoichiometry) (NHERF1 PDZ1 (1–120); pH 7.5): 0.92
- ΔH^o (NHERF1 PDZ1 (1–120); pH 7.5): -8.2 ± 0.8 kcal/mol
- ΔG^o (NHERF1 PDZ1 (1–120); pH 7.5, from Eq 3): -7.6 ± 0.8 kcal/mol
- ΔS^o (NHERF1 PDZ1 (1–120); pH 7.5, from Eq 4): -2.1±0.2 cal/mol/K
- binding selectivity (NHERF1 PDZ1 and PDZ2): binds only PDZ1
- binding affinity at acidic pH (NHERF1 PDZ1 (1–140)): significantly reduced compared to pH 7.4
- effect of His27Asn mutation on interaction (NHERF1 PDZ1 H27N (1–120); FP and ITC): decrease the interaction with NPT2A
- N (stoichiometry) (NHERF1 PDZ1 H27N (1–120); ITC, 25°C, pH 7.5): 0.61
- ΔH^o (NHERF1 PDZ1 H27N (1–120); ITC, 25°C, pH 7.5): -7.5 ± 0.7 kcal/mol
- ΔG^o (NHERF1 PDZ1 H27N (1–120); ITC, 25°C, pH 7.5, from Eq 3): -7.2 ± 0.7 kcal/mol
- ΔS^o (NHERF1 PDZ1 H27N (1–120); ITC, 25°C, pH 7.5, from Eq 4): -0.86±0.08 cal/mol/K
- ∆∆G^o (NHERF1 PDZ1 H27N (1–120); ∆G^o H27N - ∆G^o WT, ITC): about 0.4 kcal/mol
- ∆∆H^o (NHERF1 PDZ1 H27N (1–120); ∆H^o H27N - ∆H^o WT, ITC): 0.7 kcal/mol
- ∆∆S^o (NHERF1 PDZ1 H27N (1–120); ∆S^o H27N - ∆S^o WT, ITC): 1.3 cal mol^-1 K^-1

From article PMC4466390, “Canonical and Noncanonical Sites Determine NPT2A Binding Selectivity to NHERF1 PDZ1” (PLoS ONE, 2015)
